Assay results taken from PubChem BioAssay AID2060337 (Molecular Pharmacology Branch, DTP, NCI, 2025).

System: 832693-133-R-J1-PDC multi-cell spheroids, viability
Assay: Anticancer human tumor 832693-133-R-J1-PDC patient-derived head and neck squamous carcinoma cell line growth inhibition [IpAb]
Details: for IC50: curve of first compound; for viability, T/C: stronger effect = lower value
Procedure, shortened: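 Multi-cell spheroids of 60% tumour cells, 25% HUVEC and 15% MSC in ultra-low-attachment U-bottom wells, treated with agents combined with ipatasertib or abemaciclib. Half-log ranges top out near clinical Cmax, or 10 microM when Cmax is unknown.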
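Also: spheroids exposed to the drugs for one week before the viability readout.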
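For viability, T/C in this document: 100% = DMSO vehicle control wells.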

Cn1ncc(Cl)c1-c1cc(C(=O)NC(CN)Cc2cccc(F)c2)sc1Cl (stereo not given) + CCN1CCN(Cc2ccc(Nc3ncc(F)c(-c4cc(F)c5nc(C)n(C(C)C)c5c4)n3)nc2)CC1
IC50 (second compound 0.01 µM): 4.49 µM
IC50 (second compound 0.0316 µM): 3.21 µM
IC50 (second compound 0.1 µM): < 0.0316 µM
IC50 (second compound 0.316 µM): < 0.0316 µM
IC50 (second compound 1 µM): < 0.0316 µM
viability, T/C (second compound 0.01 µM, first compound 0.0316 µM): 94.4%
viability, T/C (second compound 0.01 µM, first compound 0.1 µM): 91.1%
viability, T/C (second compound 0.01 µM, first compound 0.316 µM): 67.5%
viability, T/C (second compound 0.01 µM, first compound 1 µM): 50.2%
viability, T/C (second compound 0.01 µM, first compound 3.16 µM): 73.7%
viability, T/C (second compound 0.01 µM, first compound 10 µM): 0.29%
viability, T/C (second compound 0.0316 µM, first compound 0.0316 µM): 79.4%
viability, T/C (second compound 0.0316 µM, first compound 0.1 µM): 70.2%
viability, T/C (second compound 0.0316 µM, first compound 0.316 µM): 61.3%
viability, T/C (second compound 0.0316 µM, first compound 1 µM): 46.6%
viability, T/C (second compound 0.0316 µM, first compound 3.16 µM): 59.9%
viability, T/C (second compound 0.0316 µM, first compound 10 µM): 0.25%
viability, T/C (second compound 0.1 µM, first compound 0.0316 µM): 64.4%
viability, T/C (second compound 0.1 µM, first compound 0.1 µM): 50%
viability, T/C (second compound 0.1 µM, first compound 0.316 µM): 43.4%
viability, T/C (second compound 0.1 µM, first compound 1 µM): 37.8%
viability, T/C (second compound 0.1 µM, first compound 3.16 µM): 49.9%
viability, T/C (second compound 0.1 µM, first compound 10 µM): 0.21%
viability, T/C (second compound 0.316 µM, first compound 0.0316 µM): 53.2%
viability, T/C (second compound 0.316 µM, first compound 0.1 µM): 38.4%
viability, T/C (second compound 0.316 µM, first compound 0.316 µM): 31.6%
viability, T/C (second compound 0.316 µM, first compound 1 µM): 33.3%
viability, T/C (second compound 0.316 µM, first compound 3.16 µM): 32.1%
viability, T/C (second compound 0.316 µM, first compound 10 µM): 0.19%
viability, T/C (second compound 1 µM, first compound 0.0316 µM): 47.6%
viability, T/C (second compound 1 µM, first compound 0.1 µM): 37.1%
viability, T/C (second compound 1 µM, first compound 0.316 µM): 33.2%
viability, T/C (second compound 1 µM, first compound 1 µM): 32.8%
viability, T/C (second compound 1 µM, first compound 3.16 µM): 36%
viability, T/C (second compound 1 µM, first compound 10 µM): 0.28%
